Assay results reported in US9321717B2, “Process for rapid identification and preparation of crystalline forms” (Allergan, Inc., priority 2011, dated 2016).
“Also recorded” adds a separate entry of the source.

Assays:
[1] = Form risk assessment (FRA) crystallization workflow with XRPD form identification; type: physicochemical; settings: for FRA_EV: forms from evaporation; for FRA_TC: forms from thermocycled slurrying; for Forms Found by FRA: model compounds, crystalline, used as received, * = low energy form
Description: However, certain basic elements of the polymorph screening experiments are incorporated, such as solubility estimation, solvent-mediated form transformation, as well as super saturation adjustment by cooling, antisolvent addition, and evaporation, etc. The following procedure outlines the logical steps of performing an FRA experiment: • 1. Determine the physicochemical properties of the starting material (compound as received) • 2. Estimate the solubilities of the compound in twenty-four solvents with diverse solvent properties. • 3. Design approximately sixteen crystallization experiments with appropriate solvent systems based on the results of the solubility estimations. • 4. Prepare the crystallization samples and examine their solubilities in the sixteen solvent systems at elevated temperature. • 5. Conduct the crystallization experiment according to the designed workflow. • 6. Characterize and analyze the materials isolated from the crystallization experiments.
The solubility of the API is visually estimated by the “dynamic method” in each of the twenty-four solvents. This method is used to quickly bin the solvents into different categories, such as good solvents, poor solvents, and intermediates. The following describes the general procedure of the solubility estimation: • 1. Place weighed amounts of drug in clear glass vials to which incremental volumes (20-500 μL) of solvent are added until the solution turns clear. • 2. Apply brief vortexing after each solvent addition. • 3. Calculate the approximate visual solubility of the drug in a solvent by recording the amount of solvent required to completely dissolve the known weight of drug. The preferred unit of solubility is mg/mL.
The suspensions of the drug substance in a variety of solvent systems will be subjected to temperature-cycled slurrying, which is the primary crystallization method. Sixteen sample slurries for thermo-cycled experiments should be prepared with caution to avoid complete dissolution of the solid at elevated temperatures. For slurry with a single solvent system, the initial composition should have approximately 5-10 times higher concentration than the estimated solubility value at ambient temperature. For slurry in a solvent mixture, a suspension of the compound in the antisolvent should first be prepared and followed by the introduction of the solvent to adjust the solubility. The final antisolvent to solvent volume ratio is typically between 3 and 10. Record the amount of compound initially added and the volumes of added solvent aliquots.
Appendix 1 summarizes the typical temperature programs for each experiment. Usually three heat-cool-heat temperature cycles are used. The initial fast thermocycling runs help preliminarily assessing the dissolution behavior of the samples. The slow thermocycling runs focus on generating crystals and increasing the crystallinity and form purity.
If the sample remains a clear solution after the initial thermocycling, the solution is cooled to induce super saturation. During cooling, the original solution may become supersaturated and further reach the metastable limit when spontaneous crystallization starts. Usually the final temperature is 5° C. and the cooling rate is 0.1° C. per minute to facilitate crystal growth.
If the sample is still a clear solution at 5° C., the sample vial will be transferred into a −20° C. freezer for at least 2-3 days. The sample should be regularly examined by visual inspection and/or polarized light microscope for signs of solid formation.
The antisolvents identified during the initial solubility estimation can be used for adjusting the solubility of the drug substance in the primary solvent. The combination of a solvent with a miscible antisolvent provides a continuous solvent space, which potentially maximizes the possibility of capturing a crystalline form. […]

[2] = model compounds; * = low energy form; cited from earlier work

FRA_EV [1]	FRA_TC [1]	Forms Found by FRA [1]	FRA_AS ([1]; forms from antisolvent addition)	forms identified or generated by FRA [1]	Structure (SMILES)	Reported Forms in the Literature [2]
A, C	A, C	A*, B, C; also recorded: (new form)			NC(N)=Nc1nc(CSCCC(N)=NS(N)(=O)=O)cs1 [Famotidine]	A*, B
	A, B, C	A*, B, C			COC(=O)Nc1nc2ccc(C(=O)c3ccccc3)cc2[nH]1 [Mebendazole]	A*, B, C
I, IV,; also recorded: solvate	I, II, III, IV				O=C(O)c1cc(-c2ccc(F)cc2F)ccc1O [Diflunisal]	
	α, β, γ	α, β, γ*			COc1ccc2c(c1)c(CC(=O)O)c(C)n2C(=O)c1ccc(Cl)cc1 [Indomethacin]	α, β, γ*
I, II	I, II,; also recorded: hydrate	I*, II, hydrate			CN1C(C(=O)Nc2ccccn2)=C(O)c2ccccc2S1(=O)=O [Piroxicam]	I*, II, III, hydrate
		I*, solvate	solvate		O=C(c1ccccc1)c1ccc2n1CCC2C(=O)O (stereo not shown) [Ketorolac free acid]	I*, II, III, solvate
	I, II, III, IV	I, II, III*, IV*			Nc1ccc(S(=O)(=O)Nc2nccs2)cc1 [Sulfathiazole]	I, II, III*, IV*, V
				capture both forms	CCNC(=O)CCC/C=C\C[C@@H]1[C@@H](/C=C/[C@@H](O)CCc2ccccc2)[C@H](O)C[C@@H]1O [bimatoprost, Bimatoprost]	
	B, C	B*, C*		both enantiotropic polymorphs	CCCCCCCCCCCCCCCCCC(=O)O [Stearic acid (E), Stearic acid]	A, B*, C*, E
γ	α, β, γ	α*, β*, γ			NC(=O)N1c2ccccc2C=Cc2ccccc21 [Carbamazepine (E), Carbamazepine]	α*, β*, γ,; also recorded: dihydrate, solvate
